Legend:
Assay type in all cases: cell-based
[1] = tested on: A549 lung cancer cells; experiment: MTT cell growth and proliferation experiment, A549; parameters: key to Inhibition Rate: (control OD570 − test OD570)/control OD570, as fraction; details: 3 d; for OD Value (x ± s): A549, MTT OD 570 nm; for Inhibition Rate: A549, MTT, given as fraction
Description: (§1) 1.1 Reagents 12 retinoic acid derivatives with the final concentrations of 1 ug/ml, 5 ug/ml and 10 ug/ml are synthesized by the Pharmaceutical College of Anhui Medical University using DMSO and anhydrous ethanol, separately packaged for storage at −20° C. and kept out of the light when used, and the final concentration of DMSO is less than 0.1%. MTT is purchased from Sigma Corp. The Coulter DNA detection kit is presented by the Central Lab of Anhui Provincial Hospital. AFP and γ-GT are provided by the Clinical Lab of No. 105 Hospital of PLA. Apoptosis-Hoechst staining kit is purchased from Beyotime Company.
(§2) 1.2 Cell Culture A549, and HpeG2 cells are stored by our lab. Cell growth condition: DMEM (from GIBICO Company) culture solution is added with 10% of calf serum (purchased from the Hangzhou Sijiqing Biological Engineering Material Co., Ltd.) to culture in a cell culture incubator (37° C., 5% CO2) with saturated humidity.
(§3) 1.3 Cell Growth and Proliferation Experiments MTT process is used. Cells in the logarithmic phase are picked and seeded on a 96-hole culture board with a cell concentration of 5×10^7/L. Each hole of the board is 200 ul. The next day after the adherence, the original solution is discarded, and the culture solution is added. The cells are divided into 1 ug/ml retinoic acid derivative groups, 5 ug/ml retinoic acid derivative groups, 10 ug/ml retinoic acid derivative groups, blank control groups, cell control groups, solvent control groups (1‰ DMSO and anhydrous ethanol) (17 in total) according to the concentrations thereof, incubated for 3d, added with MTT (5 g/L) of 20 ul/hole for incubation at 37° C. for 4 h. The original solution is carefully discarded and dried, and DMSO of 20 ul/hole is added to dissolve crystals, followed by vibrating for 10 min and determining the OD value at 570 nm. Each concentration is corresponding to 5 holes, and each group calculates the average of 3 experiments to calculate the inhibition rate to the cell growth according to the optical density (OD) average of each hole in each group and the following equation: inhibition rate %=(control hole OD570−experimental hole OD570)/control hole OD5700*100%. The process above is repeated for three times. The second experiment takes the maximum concentration (10 […]) for culture respectively for 1, 2, 3 and 7 days and repeat for three times.

[2] = tested on: liver cancer HepG2 cells; experiment: MTT cell growth and proliferation experiment, HepG2; parameters: key to Inhibition Rate: (control OD570 − test OD570)/control OD570, as fraction; details: 3 d; for OD Value (x ± s): HepG2, MTT OD 570 nm; for Inhibition Rate: HepG2, MTT, fraction
Description: as §1, §2, §3

[3] = tested on: K562 cells; experiment: Cell cycle analysis by flow cytometer, K562; parameters: S %: dose or concentration left out as unconfirmed; details: 72 h
Description: (§4) Retinoic acid derivatives and fenretinide are prepared as a storage solution of 10 mg/mL by anhydrous ethanol and stored at […] and kept out of light.
(§5) NB4 cells and K562 cells are inoculated with an initial concentration of 2*10^5/ml in the RPMI1640 culture solution having 10% of calf serum (FBS), 100 u/ml of penicillin, 100 Lg/ml of streptomycin and 2 mmol/L of glutamine for suspension culture (37° C., 5% CO2). Change the solution every 2-3 days.
(§6) For the cells above acted by the retinoic acid derivatives and fenretinide ([…]) for 72 h, about 10^6 of them are collected, washed by PBS twice, fixed by 70% of cold ethanol over 24 h, washed by PBS twice, added with 5 ug/ml of propidium iodide for staining and detected by a flow cytometer from which the data are analyzed and processed by the multi-cycle software.

[4] = tested on: NB4 cells; experiment: Cell cycle analysis by flow cytometer, NB4; parameters: S %: dose or concentration left out as unconfirmed; details: 72 h
Description: as §4, §5, §6

Structure (SMILES): CC1=C(/C=C/C(C)=C/C=C/C(C)=C/C(=O)Oc2cccc(C(F)(F)F)c2)C(C)(C)CCC1 [Example 2a-02, (3-trifluoromethylphenyl)-(all-trans)-3,7-dimethyl-9-(2,6,6-trimethyl-1-cyclohexen-1-yl)-2,4,6,8-nonatetraenoate]
- OD Value (x ± s) ([1]; 1 ug/ml, solvent DMSO (D)): 1.735 ± 0.048
- OD Value (x ± s) ([1]; 5 ug/ml, solvent DMSO (D)): 1.621 ± 0.070
- OD Value (x ± s) ([1]; 10 ug/ml, solvent DMSO (D)): 1.580 ± 0.207
- Inhibition Rate ([1]; 1 ug/ml, solvent DMSO (D)): 0.070
- Inhibition Rate ([1]; 5 ug/ml, solvent DMSO (D)): 0.131
- Inhibition Rate ([1]; 10 ug/ml, solvent DMSO (D)): 0.144
- OD Value (x ± s) ([2]; 1 ug/ml, solvent ethanol): 1.19 ± 0.52
- OD Value (x ± s) ([2]; 5 ug/ml, solvent ethanol): 1.13 ± 0.46
- OD Value (x ± s) ([2]; 10 ug/ml, solvent ethanol): 0.94 ± 0.49
- Inhibition Rate ([2]; 1 ug/ml, solvent ethanol): 0.29
- Inhibition Rate ([2]; 5 ug/ml, solvent ethanol): 0.33
- Inhibition Rate ([2]; 10 ug/ml, solvent ethanol): 0.45
- G1 % [3]: 35.4%
- G2 % [3]: 9.9%
- S % [3]: 54.6%

Structure (SMILES): CC1=C(/C=C/C(C)=C/C=C/C(C)=C/C(=O)Oc2ccc(C(F)(F)F)cc2)C(C)(C)CCC1 [Example 2a-01, (4-trifluoromethylphenyl)-(all-trans)-3,7-dimethyl-9-(2,6,6-trimethyl-1-cyclohexen-1-yl)-2,4,6,8-nonatetraenoate]
- OD Value (x ± s) ([1]; 1 ug/ml, solvent ethanol): 1.878 ± 0.158
- OD Value (x ± s) ([1]; 5 ug/ml, solvent ethanol): 1.487 ± 0.175
- OD Value (x ± s) ([1]; 10 ug/ml, solvent ethanol): 1.458 ± 0.066
- Inhibition Rate ([1]; 1 ug/ml, solvent ethanol): −0.006
- Inhibition Rate ([1]; 5 ug/ml, solvent ethanol): 0.203
- Inhibition Rate ([1]; 10 ug/ml, solvent ethanol): 0.219
- OD Value (x ± s) ([2]; 1 ug/ml, solvent ethanol): 1.38 ± 0.56
- OD Value (x ± s) ([2]; 5 ug/ml, solvent ethanol): 1.31 ± 0.57
- OD Value (x ± s) ([2]; 10 ug/ml, solvent ethanol): 1.30 ± 0.55
- Inhibition Rate ([2]; 1 ug/ml, solvent ethanol): 0.18
- Inhibition Rate ([2]; 5 ug/ml, solvent ethanol): 0.23
- Inhibition Rate ([2]; 10 ug/ml, solvent ethanol): 0.24
- G1 % [3]: 36.1%
- G2 % [3]: 12.5%
- S % [3]: 51.4%

Structure (SMILES): CC1=C(/C=C/C(C)=C/C=C/C(C)=C/C(=O)Oc2ccc(N)c(C(F)(F)F)c2)C(C)(C)CCC1 [Example 4a-01, (4-amino-3-trifluoromethylphenyl)-(all-trans)-3,7-dimethyl-9-(2,6,6-trimethyl-1-cyclohexen-1-yl)-2,4,6,8-nonatetraenoate]
- OD Value (x ± s) ([2]; 1 ug/ml, solvent not given): 1.72 ± 0.44
- OD Value (x ± s) ([2]; 5 ug/ml, solvent not given): 1.63 ± 0.36
- OD Value (x ± s) ([2]; 10 ug/ml, solvent not given): 1.57 ± 0.30
- Inhibition Rate ([2]; 1 ug/ml, solvent not given): −0.009
- Inhibition Rate ([2]; 5 ug/ml, solvent not given): 0.04
- Inhibition Rate ([2]; 10 ug/ml, solvent not given): 0.07
- G1 % [3]: 39.1%
- G2 % [3]: 6.9%
- S % [3]: 53.9%
- G1 % [4]: 59.15%
- G2 % [4]: 7.07%
- S % [4]: 33.78%

Structure (SMILES): CC1=C(/C=C/C(C)=C/C=C/C(C)=C/C(=O)Oc2ccc(OC(F)(F)F)cc2)C(C)(C)CCC1 [Example 5a-01, (4-trifluoromethoxyphenyl)-(all-trans)-3,7-dimethyl-9-(2,6,6-trimethyl-1-cyclohexen-1-yl)-2,4,6,8-nonatetraenoate]
- OD Value (x ± s) ([1]; 1 ug/ml, solvent ethanol): 1.962 ± 0.225
- OD Value (x ± s) ([1]; 5 ug/ml, solvent ethanol): 1.754 ± 0.138
- OD Value (x ± s) ([1]; 10 ug/ml, solvent ethanol): 1.732 ± 0.317
- Inhibition Rate ([1]; 1 ug/ml, solvent ethanol): −0.051
- Inhibition Rate ([1]; 5 ug/ml, solvent ethanol): 0.060
- Inhibition Rate ([1]; 10 ug/ml, solvent ethanol): 0.072
- OD Value (x ± s) ([2]; 1 ug/ml, solvent ethanol): 1.57 ± 0.39
- OD Value (x ± s) ([2]; 5 ug/ml, solvent ethanol): 1.51 ± 0.30
- OD Value (x ± s) ([2]; 10 ug/ml, solvent ethanol): 1.49 ± 0.23
- Inhibition Rate ([2]; 1 ug/ml, solvent ethanol): 0.07
- Inhibition Rate ([2]; 5 ug/ml, solvent ethanol): 0.11
- Inhibition Rate ([2]; 10 ug/ml, solvent ethanol): 0.12
- G1 % [3]: 32.6%
- G2 % [3]: 12.5%
- S % [3]: 55.0%
- G1 % [4]: 59.28%
- G2 % [4]: 4.98%
- S % [4]: 35.74%

Structure (SMILES): CC1=C(/C=C/C(C)=C/C=C/C(C)=C/C(=O)Oc2cccc(OC(F)(F)F)c2)C(C)(C)CCC1 [Example 5a-02, (3-trifluoromethoxyphenyl)-(all-trans)-3,7-dimethyl-9-(2,6,6-trimethyl-1-cyclohexen-1-yl)-2,4,6,8-nonatetraenoate]
- OD Value (x ± s) ([1]; 1 ug/ml, solvent DMSO (D)): 1.843 ± 0.179
- OD Value (x ± s) ([1]; 5 ug/ml, solvent DMSO (D)): 1.817 ± 0.142
- OD Value (x ± s) ([1]; 10 ug/ml, solvent DMSO (D)): 1.689 ± 0.154
- Inhibition Rate ([1]; 1 ug/ml, solvent DMSO (D)): 0.012
- Inhibition Rate ([1]; 5 ug/ml, solvent DMSO (D)): 0.027
- Inhibition Rate ([1]; 10 ug/ml, solvent DMSO (D)): 0.095
- OD Value (x ± s) ([2]; 1 ug/ml, solvent ethanol): 1.27 ± 0.44
- OD Value (x ± s) ([2]; 5 ug/ml, solvent ethanol): 1.13 ± 0.47
- OD Value (x ± s) ([2]; 10 ug/ml, solvent ethanol): 1.11 ± 0.61
- Inhibition Rate ([2]; 1 ug/ml, solvent ethanol): 0.25
- Inhibition Rate ([2]; 5 ug/ml, solvent ethanol): 0.33
- Inhibition Rate ([2]; 10 ug/ml, solvent ethanol): 0.35
- G1 % [3]: 38.2%
- G2 % [3]: 7.7%
- S % [3]: 54.2%
- G1 % [4]: 60.06%
- G2 % [4]: 4.91%
- S % [4]: 35.03%

Reference: patent US8110703B2, “Retinoid derivative and pharmaceutical composition and use thereof” (Anhui Medical University, priority 2008, dated 2012)
